Results from patent US6441195B1, “Substituted sulphonylamino(thio) carbonyl compounds” (Bayer Aktiengesellschaft, priority 1995, dated 2002).

Experiments:
Assay type in all cases: in vivo
Ambrosia = experiment: Pre-emergence test/Greenhouse, Ambrosia; settings: after three weeks
Procedure, shortened: (§1)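 Pre-emergence soil drench ~24 h after sowing; compound in solvent/emulsifier diluted with water, constant water per area, dose defined by rate per unit area. Read-out at 3 wk: % damage vs untreated control, 0% = no action.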

Lolium = experiment: Pre-emergence test/Greenhouse, Lolium; settings: after three weeks
Procedure, shortened: as §1

Sorghum = experiment: Pre-emergence test/Greenhouse, Sorghum; settings: after three weeks
Procedure, shortened: as §1

Matricaria = experiment: Pre-emergence test/Greenhouse, Matricaria; settings: after three weeks
Procedure, shortened: as §1

Poa = experiment: Pre-emergence test/Greenhouse, Poa; settings: after three weeks
Procedure, shortened: as §1

Maize = experiment: Pre-emergence test/Greenhouse, Maize; settings: in vivo
Procedure, shortened: as §1

weeds = experiment: Pre-emergence test (greenhouse), activity against weeds; settings: in words
Procedure, shortened: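 Three weeks after treatment, % damage relative to untreated plants is scored, 0% meaning no effect. Seeds in normal soil received, roughly one day post-sowing, an aqueous dilution of an acetone/emulsifier concentrate, with the rate per unit area, not concentration, being the relevant dose.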

Solanum = experiment: Pre-emergence test/Greenhouse, Solanum; settings: after three weeks
Procedure, shortened: as §1

Soya beans = experiment: Pre-emergence test/Greenhouse, Soya beans; settings: in vivo
Procedure, shortened: as §1

Row | Compound | degree of damage to the plants (% damage vs untreated control), Ambrosia (Ambrosia; 125 g of ai./ha) | degree of damage to the plants (% damage vs untreated control), Lolium (Lolium; 125 g of ai./ha) | degree of damage to the plants (% damage vs untreated control), Sorghum (Sorghum; 125 g of ai./ha) | degree of damage to the plants (% damage vs untreated control), Matricaria (Matricaria; 125 g of ai./ha) | degree of damage to the plants (% damage vs untreated control), Poa (Poa; 125 g of ai./ha) | degree of damage to the plants (% damage vs untreated control), Maize (Maize) | activity against weeds (weeds) | degree of damage to the plants (% damage vs untreated control), Solanum (Solanum; 125 g of ai./ha) | degree of damage to the plants (% damage vs untreated control), Soya beans (Soya beans) | degree of damage to the plants (% damage vs untreated control), Ambrosia (Ambrosia; 60 g of ai./ha) | degree of damage to the plants (% damage vs untreated control), Lolium (Lolium; 60 g of ai./ha) | degree of damage to the plants (% damage vs untreated control), Sorghum (Sorghum; 60 g of ai./ha) | degree of damage to the plants (% damage vs untreated control), Matricaria (Matricaria; 60 g of ai./ha) | degree of damage to the plants (% damage vs untreated control), Poa (Poa; 60 g of ai./ha) | degree of damage to the plants (% damage vs untreated control), Solanum (Solanum; 60 g of ai./ha)
1 | CCOc1nn(C(=O)NS(=O)(=O)c2c(OC)cccc2C(=O)OC)c(=O)n1C [Example 136] | 80% | 95% | 90% | 90% | 95% | 30% | very strong activity against weeds | 95% | 20% | – | – | – | – | – | –
2 | COC(=O)c1cccc(C)c1S(=O)(=O)[N-]C(=O)n1nc(SC)n(C)c1=O.[Na+] [Example 145] | – | – | – | – | – | 0% | very strong activity against weeds | – | 0% | 95% | 95% | 95% | 60% | 95% | 95%
3 | C=CCOc1nn(C(=O)NS(=O)(=O)c2c(C)cccc2C(=O)OC)c(=O)n1C [Example 148] | – | – | – | – | – | 40% | very strong activity against weeds | – | 0% | 80% | 80% | 90% | 80% | 95% | 95%
4 | COC(=O)c1cccc(C)c1S(=O)(=O)NC(=O)n1nc(SCC(F)(F)F)n(C2CC2)c1=O [Example 149] | 95% | 95% | 80% | 95% | 95% | 0% | very strong activity against weeds | 95% | 30% | – | – | – | – | – | –
5 | CCCc1nn(C(=O)[N-]S(=O)(=O)c2c(C)cccc2C(=O)OC)c(=O)n1C.[Na+] [Example 154] | – | – | – | – | – | 0% | very strong activity against weeds | – | 0% | 70% | 95% | 95% | 70% | 95% | 90%
6 | COC(=O)c1cccc(C)c1S(=O)(=O)NC(=O)n1nc(SC)n(OC)c1=O [Example 156] | – | – | – | – | – | 0% | very strong activity against weeds | – | 10% | 70% | 70% | 70% | 95% | 90% | 70%
7 | CCSc1nn(C(=O)NS(=O)(=O)c2c(C)cccc2C(=O)OC)c(=O)n1OC [Example 157] | – | – | – | – | – | 0% | very strong activity against weeds | – | 20% | 95% | 90% | 80% | 100% | 80% | 90%
8 | C#CCSc1nn(C(=O)NS(=O)(=O)c2c(C)cccc2C(=O)OC)c(=O)n1C1CC1 [Example 160] | – | – | – | – | – | 30% | very strong activity against weeds | – | 10% | 90% | 90% | 60% | 95% | 90% | 90%
